Patent US12660819B2, “Herbicidal derivatives” (SYNGENTA CROP PROTECTION AG, priority 2020, dated 2026)

Experiments:
Assay type in all cases: in vivo
[1] = tested on: Solanum nigrum (SOLNI); test: Pre-emergence Test (glasshouse, percentage damage to the plant); details: 1000 g/ha unless otherwise stated, five-point scale
[2] = tested on: Setaria faberi (SETFA); test: as above; details: 1000 g/ha unless otherwise stated, five-point scale
[3] = tested on: Ipomoea hederacea (IPOHE); test: as above; details: 1000 g/ha unless otherwise stated, five-point scale
[4] = tested on: Amaranthus retoflexus (AMARE); test: as above; details: 1000 g/ha unless otherwise stated, five-point scale
[5] = tested on: Echinochloa crus-galli (ECHCG); test: as above; details: 1000 g/ha unless otherwise stated, five-point scale
[6] = tested on: Lolium perenne (LOLPE); test: as above; details: 1000 g/ha unless otherwise stated, five-point scale
[7] = tested on: Echinochloa crus-galli (ECHCG); test: Post-emergence Test (glasshouse, percentage damage to the plant); details: post-emergence spray, 1000 g/ha unless otherwise stated, evaluated after 13 days
Outline: (§1)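 Spray treatment of sown glasshouse pots at 1000 g/ha (default rate), vehicle acetone/water 50:50 plus 0.5% Tween 20. Read-out: percentage damage after 13 days, converted to a score where 5 denotes 81-100% and 1 denotes 0-20%.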

[8] = tested on: Ipomoea hederacea (IPOHE); test: as above; details: post-emergence spray, 1000 g/ha unless otherwise stated, evaluated after 13 days
Outline: (§2)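 Seeds sown in pots in glasshouse (24/16 °C day/night, 14 h light, 65% humidity), then sprayed with compound at 1000 g/ha unless stated, from acetone/water 50:50 with 0.5% Tween 20. Damage assessed 13 days later on five-point scale (1=0–20% to 5=81–100%).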

[9] = tested on: Setaria faberi (SETFA); test: as above; details: post-emergence spray, 1000 g/ha unless otherwise stated, evaluated after 13 days
Outline: as §2

[10] = tested on: Solanum nigrum (SOLNI); test: as above; details: post-emergence spray, 1000 g/ha unless otherwise stated, evaluated after 13 days
Outline: as §1

[11] = tested on: Lolium perenne (LOLPE); test: as above; details: post-emergence spray, 1000 g/ha unless otherwise stated, evaluated after 13 days
Outline: as §1

[12] = tested on: Amaranthus retoflexus (AMARE); test: as above; details: post-emergence spray, 1000 g/ha unless otherwise stated, evaluated after 13 days
Outline: as §1

Structure (SMILES) | percentage damage to the plant, SOLNI [1] | percentage damage to the plant, SETFA [2] | percentage damage to the plant, IPOHE [3] | percentage damage to the plant, AMARE [4] | percentage damage to the plant, ECHCG [5] | percentage damage to the plant, LOLPE [6] | Post-emergence Test ECHCG, percentage damage to the plant (five-point scale) [7] | Post-emergence Test IPOHE, percentage damage to the plant (five-point scale) [8] | Post-emergence Test SETFA, percentage damage to the plant (five-point scale) [9] | Post-emergence Test SOLNI, percentage damage to the plant (five-point scale) [10] | Post-emergence Test LOLPE, percentage damage to the plant (five-point scale) [11] | Post-emergence Test AMARE, percentage damage to the plant (five-point scale) [12]
CCn1c(C)c(-c2ccc(F)nc2)c(=O)c(C(=O)O)c1-c1ccc(Cl)c(Cl)c1 [Compound 8, 2-(3,4-dichlorophenyl)-1-ethyl-5-(6-fluoro-3-pyridyl)-6-methyl-4-oxo-pyridine-3-carboxylic acid] | 3 (3=41-60%) | 4 (4=61-80%) | 1 (1=0-20%) | 3 (3=41-60%) | 2 (2=21-40%) | 3 (3=41-60%) | 4 (4=61-80%) | 4 (4=61-80%) | 5 (5=81-100%) | 5 (5=81-100%) | 3 (3=41-60%) | 5 (5=81-100%)
CCn1c(C)c(-c2cscc2C)c(=O)c(C(=O)O)c1-c1ccc(Cl)c(Cl)c1 [Compound 20, 2-(3,4-dichlorophenyl)-1-ethyl-6-methyl-5-(4-methyl-3-thienyl)-4-oxo-pyridine-3-carboxylic acid] | 2 (2=21-40%) | 4 (4=61-80%) | 1 (1=0-20%) | 1 (1=0-20%) | 2 (2=21-40%) | 3 (3=41-60%) | 3 (3=41-60%) | 2 (2=21-40%) | 4 (4=61-80%) | 3 (3=41-60%) | 2 (2=21-40%) | 4 (4=61-80%)
CCn1c(C)c(-c2ccc(C(F)(F)F)cc2)c(=O)c(C(=O)O)c1-c1ccc(Cl)c(Cl)c1 [Compound 26, 2-(3,4-dichlorophenyl)-1-ethyl-6-methyl-4-oxo-5-[4-(trifluoromethyl)phenyl]pyridine-3-carboxylic acid] | 1 (1=0-20%) | 1 (1=0-20%) | 1 (1=0-20%) | 1 (1=0-20%) | 1 (1=0-20%) | 1 (1=0-20%) | 4 (4=61-80%) | 4 (4=61-80%) | 5 (5=81-100%) | 2 (2=21-40%) | 1 (1=0-20%) | 5 (5=81-100%)
CCn1c(C)c(-c2csc(Cl)c2)c(=O)c(C(=O)O)c1-c1ccc(Cl)c(Cl)c1 [Compound 37, 5-(5-chloro-3-thienyl)-2-(3,4-dichlorophenyl)-1-ethyl-6-methyl-4-oxo-pyridine-3-carboxylic acid] | 1 (1=0-20%) | 1 (1=0-20%) | 1 (1=0-20%) | 1 (1=0-20%) | 1 (1=0-20%) | 1 (1=0-20%) | 1 (1=0-20%) | 3 (3=41-60%) | 1 (1=0-20%) | 4 (4=61-80%) | 1 (1=0-20%) | 1 (1=0-20%)
CCn1c(C)c(-c2ccc([N+](=O)[O-])cc2)c(=O)c(C(=O)O)c1-c1ccc(Cl)c(Cl)c1 [Compound 36, 2-(3,4-dichlorophenyl)-1-ethyl-6-methyl-5-(4-nitrophenyl)-4-oxo-pyridine-3-carboxylic acid] | 3 (3=41-60%) | 5 (5=81-100%) | 1 (1=0-20%) | 1 (1=0-20%) | 5 (5=81-100%) | 1 (1=0-20%) | 5 (5=81-100%) | 1 (1=0-20%) | 4 (4=61-80%) | 2 (2=21-40%) | 1 (1=0-20%) | 1 (1=0-20%)
CCn1c(C)c(-c2ccc(OC)nc2)c(=O)c(C(=O)O)c1-c1ccc(Cl)c(Cl)c1 [Compound 126, 2-(3,4-dichlorophenyl)-1-ethyl-5-(6-methoxy-3-pyridyl)-6-methyl-4-oxo-pyridine-3-carboxylic acid] | 4 (4=61-80%) | 4 (4=61-80%) | 3 (3=41-60%) | 5 (5=81-100%) | 2 (2=21-40%) | 0 | 4 (4=61-80%) | 4 (4=61-80%) | 5 (5=81-100%) | 5 (5=81-100%) | 2 (2=21-40%) | 5 (5=81-100%)
CCn1c(C)c(-c2ccc(F)c(Cl)c2)c(=O)c(C(=O)O)c1-c1ccc(Cl)c(Cl)c1 [Compound 22, 5-(3-chloro-4-fluoro-phenyl)-2-(3,4-dichlorophenyl)-1-ethyl-6-methyl-4-oxo-pyridine-3-carboxylic acid] | 2 (2=21-40%) | 3 (3=41-60%) | 1 (1=0-20%) | 2 (2=21-40%) | 1 (1=0-20%) | 2 (2=21-40%) | 2 (2=21-40%) | 3 (3=41-60%) | 4 (4=61-80%) | 4 (4=61-80%) | 2 (2=21-40%) | 5 (5=81-100%)
CCn1c(C)c(-c2ccnnc2)c(=O)c(C(=O)O)c1-c1ccc(Cl)c(Cl)c1 [Compound 35, 2-(3,4-dichlorophenyl)-1-ethyl-6-methyl-4-oxo-5-pyridazin-4-yl-pyridine-3-carboxylic acid;2,2,2-trifluoroacetic acid, 2,2,2-trifluoroacetate] | 1 (1=0-20%) | 1 (1=0-20%) | 1 (1=0-20%) | 1 (1=0-20%) | 1 (1=0-20%) | 1 (1=0-20%) | 2 (2=21-40%) | 1 (1=0-20%) | 2 (2=21-40%) | 1 (1=0-20%) | 1 (1=0-20%) | 1 (1=0-20%)
